Results reported in the supplement of paper PMC10307832.

Legend:
Assay in all cases: relative viability (nuclei count vs DMSO), 5 days (fraction); higher = more cells survive
[1] = compound: COc1cc2nccc(Oc3ccc(NC(=O)C4(C(=O)Nc5ccc(F)cc5)CC4)cc3)c2cc1OC [Cabozantinib] + N=C(N)NC(=N)NCCc1ccccc1 [Phenformin] (partner 250 µM)
Procedure, shortened: (§1)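 Cells from lung cancer lines were seeded into 1536-well plates and, one day later, dosed by pin tool. Treatments were either a single drug or a fixed dose of an anchor drug with five library-drug doses (not always all listed) in √10 steps. After 5 days, nuclei were stained in a one-step fixation (final 0.05% Triton X-100, 1% formaldehyde, 1 ug/ml Hoechst) and counted on 4× images, and relative viability is the treated-to-vehicle nuclei ratio, as the median of duplicate plates.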

[2] = compound: COc1cc2nccc(Oc3ccc(NC(=O)C4(C(=O)Nc5ccc(F)cc5)CC4)cc3)c2cc1OC [Cabozantinib] + NC(=O)Nc1cc(-c2cccc(F)c2)sc1C(=O)N[C@H]1CCCNC1 [AZD7762] (partner 0.2 µM)
Procedure, shortened: as §1

[3] = compound: C1=CC(=CC=C1NC(=S)NNC2=C(C=C(C=C2[N+](=O)[O-])C(F)(F)F)[N+](=O)[O-])F [Kobe2602] + CCNC(=O)c1noc(-c2cc(C(C)C)c(O)cc2O)c1-c1ccc(CN2CCOCC2)cc1 [Luminespib] (partner 0.01 µM)
Procedure, shortened: as §1

[4] = compound: COc1cc2nccc(Oc3ccc(NC(=O)C4(C(=O)Nc5ccc(F)cc5)CC4)cc3)c2cc1OC [Cabozantinib] + Cc1cc(Nc2cc(N3CCN(C)CC3)nc(Sc3ccc(NC(=O)C4CC4)cc3)n2)n[nH]1 [Tozasertib] (partner 0.1 µM)
Procedure, shortened: as §1

Cell Line	relative viability ([1]; first compound 0.02 µM)	relative viability ([1]; first compound 0.06325 µM)	relative viability ([1]; first compound 0.2 µM)	relative viability ([1]; first compound 0.6325 µM)	relative viability ([1]; first compound 2 µM)	relative viability ([2]; first compound 0.02 µM)	relative viability ([2]; first compound 0.06325 µM)	relative viability ([2]; first compound 0.2 µM)	relative viability ([2]; first compound 0.6325 µM)	relative viability ([2]; first compound 2 µM)	relative viability ([3]; first compound 0.2 µM)	relative viability ([3]; first compound 0.6325 µM)	relative viability ([3]; first compound 2 µM)	relative viability ([3]; first compound 6.325 µM)	relative viability ([3]; first compound 20 µM)	relative viability ([4]; first compound 0.02 µM)	relative viability ([4]; first compound 0.06325 µM)	relative viability ([4]; first compound 0.2 µM)	relative viability ([4]; first compound 0.6325 µM)	relative viability ([4]; first compound 2 µM)
HOP-62	0.706	0.777	0.741	0.693	0.697	0.629	0.798	0.633	0.441	0.428	0.933	0.957	0.866	0.88	0.87	0.398	0.388	0.378	0.376	0.346
LC-2-ad		0.68	0.574	0.604	0.546	0.766	0.98	0.79	0.902	0.866	1.01	1.15	0.908	1.12	1.06		0.454	0.46	0.456	0.392
LCLC-97TM1	0.229	0.461	0.5	0.431	0.45		0.305	0.285	0.195	0.304	0.749	0.718	0.739	0.741	0.819	0.288	0.27	0.252	0.217	0.282
LCLC-103H	0.296	0.354	0.27	0.371	0.306	0.762	0.87	0.811	0.813	0.721	0.908	1.03	0.935	0.913	0.765	0.552	0.471	0.474	0.486	0.391
LK-2		0.508		0.396	0.607		0.659	0.426	0.434	0.408	0.189	0.204	0.182	0.154	0.195		0.169		0.18	0.175
LOU-NH91	0.602	0.931		0.792	0.731	0.637	0.862	0.703	0.752	0.768	0.387	0.338	0.326	0.367	0.331	0.677	0.729		0.724	0.75
LU99A	0.766	0.934	0.925	0.696	0.89	0.292	0.376	0.411	0.279	0.397	0.281	0.29	0.227	0.2	0.343	0.27	0.245	0.258	0.255	0.224
LXF-289	0.524	0.544	0.5	0.508	0.493	1.15	1.07	1.13	1.09	1.06	0.7	0.799	0.637	0.606	0.708	0.206	0.198	0.171	0.218	0.208
NCI-H23		0.938	0.8	0.825	0.814		0.312	0.248	0.261	0.241	0.248	0.201	0.227	0.214	0.202		0.47	0.387	0.325	0.292
NCI-H322M	0.779	0.922	0.589	0.803	0.816	0.574	0.716	0.543	0.725	0.612	0.895	0.944	0.855	0.478	1.06	0.488	0.511	0.425	0.439	0.436
NCI-H358	0.283	0.317	0.231	0.296	0.337	0.457	0.715	0.499	0.544	0.62	0.364	0.324	0.237	0.477	0.349	0.106	0.0894	0.103	0.0924	0.108
NCI-H441	0.556	0.775	1.02	0.883	0.902	1.64	1.43	1.1	1.44	0.826	0.328	0.374	0.327	0.358	0.296	0.646	0.72	0.673	0.509	0.649
NCI-H460	0.535	0.563	0.576	0.512	0.508	0.633	0.801	0.68	0.623	0.63	0.0275	0.0348	0.0337	0.0344	0.0251	0.574	0.57	0.447	0.356	0.0953
NCI-H522	0.692	0.657	0.633	0.637	0.716	0.704	0.767	0.819	0.999	0.865	1.08	1.25	1.31	1.09	1.03	0.612	0.535	0.502	0.614	0.511
NCI-H596	0.728	0.883	0.778	0.796	0.664	1.12	1.35	1.15	1.07	1.09	1.03	0.922	1.03	0.844	0.873	0.95	0.8	0.924	0.905	0.767
NCI-H647	0.488	0.596	0.541	0.49	0.322	0.44	0.77	0.427	0.594	0.4	0.259	0.188	0.152	0.112	0.225	0.483	0.195	0.421	0.334	0.203
NCI-H650		0.497	0.454	0.465	0.404	0.959	1.24	0.938	1.04	0.982	0.754	0.897	0.796	0.748	0.717		0.746	0.756	0.789	0.706

Cell Line	relative viability ([1]; first compound 0.02 µM)	relative viability ([1]; first compound 0.06325 µM)	relative viability ([1]; first compound 0.2 µM)	relative viability ([1]; first compound 0.6325 µM)	relative viability ([1]; first compound 2 µM)	relative viability ([2]; first compound 0.02 µM)	relative viability ([2]; first compound 0.06325 µM)	relative viability ([2]; first compound 0.2 µM)	relative viability ([2]; first compound 0.6325 µM)	relative viability ([2]; first compound 2 µM)	relative viability ([3]; first compound 0.2 µM)	relative viability ([3]; first compound 0.6325 µM)	relative viability ([3]; first compound 2 µM)	relative viability ([3]; first compound 6.325 µM)	relative viability ([3]; first compound 20 µM)	relative viability ([4]; first compound 0.02 µM)	relative viability ([4]; first compound 0.06325 µM)	relative viability ([4]; first compound 0.2 µM)	relative viability ([4]; first compound 0.6325 µM)	relative viability ([4]; first compound 2 µM)
NCI-H727	0.447	0.617	0.477	0.495	0.528	0.509	0.796	0.661	0.539	0.651	0.581	0.516	0.4	0.407	0.414	0.53	0.777	0.513	0.513	0.554
NCI-H838	0.551	0.592	0.542	0.563	0.41	1	0.74	0.908	0.93	0.866	0.353	0.395	0.308	0.268	0.278	0.314	0.296	0.288	0.259	0.219
NCI-H1355	0.435	0.516	0.475	0.436	0.424	0.703	0.919	0.83	0.754	0.746	0.795	0.686	0.607	0.775	0.75	0.583	0.66	0.502	0.503	0.356
NCI-H1395	0.465	0.477	0.472	0.438	0.448	0.367	0.445	0.436	0.42	0.401	0.691	0.869	0.815	0.726	0.662	0.796	0.779	0.794	0.756	0.719
NCI-H1437	0.301	0.374	0.284	0.326	0.322	1.16	1.18	1.19	1.21	1.04	1.12	1.11	1.1	1.14	0.984	0.413	0.454	0.411	0.428	0.347
NCI-H1651	0.316	0.329	0.316	0.298	0.292	0.391	0.544	0.444	0.438	0.39	0.673	0.911	0.642	0.758	0.93	0.861	0.739	0.754	0.706	0.48
NCI-H1666	0.568	0.559	0.607	0.544	0.601	0.712	1.02	0.763	0.921	0.814	0.975	1.08	1	1.05	1.08	0.628	0.644	0.622	0.619	0.673
NCI-H1734	0.368	0.395	0.403	0.406	0.355	0.522	0.655	0.563	0.575	0.544	0.196	0.175	0.167	0.187	0.173	0.292	0.284	0.275	0.286	0.214
NCI-H1755	0.611	0.624	0.57	0.644	0.561	0.449	0.494	0.471	0.39	0.547	0.334	0.425	0.414	0.395	0.322	0.673	0.666	0.618	0.529	0.539
NCI-H1793	0.347	0.441	0.303	0.326	0.296	0.413	0.625		0.579	0.17	0.185	0.201	0.217	0.47	0.205	0.663	0.427	0.271	0.257	0.169
NCI-H1915	0.364	0.389	0.374	0.373	0.362	0.769	0.721	0.725	0.804	0.678	0.778	0.875	0.783	0.852	0.693	0.46	0.447	0.471	0.435	0.416
NCI-H1944	0.17	0.213	0.193	0.208	0.204	0.492	0.552	0.598	0.55	0.69	0.74	0.801	0.608	0.739	0.645	0.275	0.274	0.238	0.257	0.238
NCI-H1975	0.408	0.462	0.386	0.423	0.399	0.673	0.828	0.683	0.678	0.682	0.365	0.29	0.229	0.216	0.288	0.761	0.78	0.699	0.435	0.295
NCI-H1993	0.448	0.521	0.511	0.473	0.476	0.589	0.556	0.513	0.461	0.56	0.673	0.794	0.605	0.658	0.769	0.546	0.625	0.565	0.572	0.542
NCI-H2085	0.749	0.752	0.595	0.695	0.616	1.08	1.06	0.766	0.768	0.727	0.393	0.466		0.478	0.436	0.87	0.852	0.818	0.655	0.527
NCI-H2087	0.422	0.455	0.471	0.429	0.456	1.19	1.44	1.18	1.35	1.35	0.226	0.153	0.174	0.143	0.153	0.271	0.24	0.225	0.248	0.204
